Laboratory results reported in patent US7993921B2, “Cell cycle regulation and differentiation” (National Institutes of Health (NIH), priority 2007, dated 2011).

What was measured:
KLF9, Hr, DBP, BHLHB5 = experiment: Transcription factor induction by T3 in OPCs (Affymetrix Mouse Genomic 430 2.0 chips); assay type: cell-based
Method: FIG. 57. KLF9, Hr, DBP, and BHLHB5 are induced in OPCs by T3. Transcription factor probe sets were induced >2-fold by T3 at early time points relative to untreated (+PDGF −T3) controls. OPCs were treated with T3 for either 1 day or 6 days in vitro with T3 (+PDGF +T3), or for only 3 hours with T3 following 1 day or 6 days in vitro in media lacking T3 (+PDGF −T3, then 3 hours +PDGF +T3). All samples were labeled and hybridized to Affymetrix Mouse Genomic 430 2.0 chips.
In OPCs cultured in saturating amounts of mitogens and T3, a small number of transcription factors are rapidly and robustly regulated in response to T3 presentation (as compared to control cultures maintained in mitogens in the absence of T3). These four genes are 1) Kruppel-Like Factor 9 (KLF9), also known as Basic Transcription Element Binding protein 1(BTEB1), 2) basic helix-loop-helix domain containing, class B5 (BHLHB5), also known as Beta3, 3) Hairless, (Hr), or ALUNC, AU, N, ba, bldy, hr, rh, rh-bmh, rhino, and 4) D site albumin promoter binding protein (DBP). KLF9, Hr, and DBP are all induced (2-6 fold) rapidly in OPCs in response to T3, before the OPCs initiate differentiation in response to T3 presentation (FIG. 57).

p57^Kip2 = p57^Kip2 expression in OPCs (RT-PCR, immunostaining of clones); assay type: cell-based, rat
Source text: p57^Kip2 was either over-expressed or reduced in levels in pure OPCs, and normal OL differentiation and OPC proliferation was observed. To test the necessity of p57^Kip2 in OL differentiation, knockdowns for p57^Kip2 were used to reduce p57^Kip2 levels in OPCs. p57^Kip2 levels were reduced by transfecting OPCs with siRNA directed against the p57^Kip2 transcript, and then cultured the transfected OPCs in media that stimulated OL differentiation. […] OPCs transfected with firefly luciferase- (cont) or p57^Kip2-targeting siRNA pools (Dharmacon) were cultured for 4 D.I.V. in −PDGF +T3 or +PDGF +T3 media and reduction in p57^Kip2 transcript levels by this method was confirmed by RT-PCR (27 cycles).
OL differentiation can be triggered by either by mitogen withdrawal or by the intrinsic timer coupled with exposure to T3 (Barres and Raff, Neuron 12:935-942 (1994)). Whereas either of these conditions will produce mature OLs, the initial genetic programs triggered by these two stimuli are not identical (Tokumoto et al., EMBO J. 20:5261-5268 (2001)). To more precisely determine how p57^Kip2 expression is induced, purified P8 OPCs were subjected to either mitogen withdrawal, T3 exposure, or both differentiation-promoting stimuli simultaneously (FIG. 48I). […]

[1] = tested on: OPCs from the cortex and cerebellum; experiment: Differentiation of OPCs from the cortex and cerebellum in response to T3; assay type: cell-based, rat; conditions: 7 days in vitro +PDGF +T3
Method: OPCs were purified via immunopanning specifically from the cortices or cerebellums of P7 Sprague-Dawley rats. These cells were then plated onto glass coverslips in the presence or absence of mitogens PDGF and NT3 (±PDGF) and presence or absence of thyroid hormone (±T3) and cultured for 3 (−PDGF) or 7 (+PDGF ±T3) days in vitro, with fresh media being supplied every 2-3 days. At the end of this time, cultures were stained for either CNPase expression (less mature) or MBP expression (more mature) as markers of OL differentiation. Percentages of healthy cells (as assessed by healthy nuclei visualized by DAPI staining) expressing indicated markers were quantified for each condition. […] All experiments analyzed in triplicate, ±S.E.M.

In the case of `N[C@@H](Cc1cc(I)c(Oc2ccc(O)c(I)c2)c(I)c1)C(=O)O` [T3, triiodothyronine], the “KLF9, Hr and DBP induction in OPCs in response to T3” value (KLF9, Hr, DBP, BHLHB5; +PDGF +T3 vs +PDGF −T3 controls) is reported as 2-6 fold, the “transcription factor probe sets (KLF9, Hr, DBP, BHLHB5) induced by T3” value (KLF9, Hr, DBP, BHLHB5; early time points relative to untreated (+PDGF −T3) controls) is reported as over 2 fold and the “KLF9 induction by T3 in OPCs” value (KLF9, Hr, DBP, BHLHB5; within 3 hours of T3 exposure) is reported as 4 fold. For the same compound, the “clones expressing uniformly high levels of p57^Kip2” value (p57^Kip2; 7 days in +PDGF +T3 medium, clonal density) was 15 out of 23, the “p57^Kip2 expression by semi-quantitative RT-PCR” value (p57^Kip2; T3 exposure, 6 DIV, purified P8 OPCs) was “did not induce” and the “expression of mature OL proteins (CNPase, MBP) in cerebellar vs cortical OPCs in response to T3” value [1] was “similarly”.
